In US9265773B2, “Tetracyclic heterocycle compounds and methods of use thereof for the treatment of viral diseases” (priority 2011, dated 2016):

What was measured:
HCV replicon genotype 1b = assay: microbe, parasite or virus in culture; assay type: cell-based; conditions: Hepatitis C virus, 96 h, genotype 1b replicon cells, incubated 96 hours, NS3/4A ELISA readout
HCV replicon genotype 1a = assay: microbe, parasite or virus in culture; assay type: cell-based; conditions: Hepatitis C virus, 96 h, genotype 1a replicon cells, incubated 96 hours, NS3/4A ELISA readout

| Compound | IC50 (HCV replicon genotype 1b) [nM] | IC50 (HCV replicon genotype 1a) [nM] |
| --- | --- | --- |
| CNC(=O)c1c(-c2ccc(F)cc2)oc2cc(N(C)S(C)(=O)=O)c(-c3ccc4c(c3)-c3nc5ccccn5c3CO4)cc12 [Compound 142, 5-(6H-chromeno[4′,3′:4,5]imidazo[1,2-a]pyridin-2-yl)-2-(4-fluorophenyl)-N-methyl-6-(N-methylmethylsulfonamido)benzofuran-3-carboxamide] | 4 | 4.1 |
| CNC(=O)c1c(-c2ccc(F)cc2)oc2cc(N(C)S(C)(=O)=O)c(-c3ccc4c(c3)-c3nc5ccc(F)cn5c3CO4)cc12 [Compound 143] | 8 | 15 |
| CNC(=O)c1c(-c2ccc(F)cc2)oc2cc(N(C)S(C)(=O)=O)c(-c3cnc4c(c3)-c3nc5ccccn5c3CO4)cc12 [Compound 144, 2-(4-fluorophenyl)-N-methyl-6-[methyl(methylsulfonyl)amino]-5-(6H pyrido[1″,2″:1′,2′]imidazo[4′,5′:4,5]pyrano[2,3-b]pyridin-2-yl)-1-benzofuran-3-carboxamide] | 1.9 | 2.9 |
| CNC(=O)c1c(-c2ccc(F)cc2)oc2cc(N(C)S(C)(=O)=O)c(-c3ccc4c(c3)-c3nc5ccccn5c3CCO4)cc12 [Compound 145, 5-(6,7-dihydrobenzo[2′,3′]oxepino[4′,5′:4,5]imidazo[1,2-a]pyridin-2-yl)-2-(4-fluorophenyl)-N-methyl-6-(N-methylmethylsulfonamido)benzofuran-3-carboxamide] | 2.7 | 5.3 |
| CNC(=O)c1c(-c2ccc(F)cc2)oc2cc(N(C)S(C)(=O)=O)c(-c3ccc4c(n3)-c3nn5ccccc5c3CO4)cc12 [Compound 146, 2-(4-fluorophenyl)-N-methyl-5-(1-aza-6H-chromeno[4′,3′:3,4]pyrazolo[1,5-a]pyridin-2-yl)-6-(N-methylmethylsulfonamido)benzofuran-3-carboxamide] | 37 | 225 |
| CNC(=O)c1c(-c2ccc(F)cc2F)oc2cc(N(C)S(C)(=O)=O)c(-c3ccc4c(n3)-c3cc5c(F)cccc5n3CO4)cc12 [Compound 147, 2-(2,4-difluorophenyl)-5-(11-fluoro-6H-pyrido[2′,3′:5,6][1,3]oxazino[3,4-a]indol-2-yl)-N-methyl-6-(N-methylmethylsulfonamido)benzofuran-3-carboxamide] | 6.9 | 9 |
| CNC(=O)c1c(-c2ccc(F)cc2F)oc2cc(N(C)S(C)(=O)=O)c(-c3ccc4c(n3)-c3cc5ccccc5n3CO4)cc12 [Compound 148] | 4.6 | 2.8 |
| CNC(=O)c1c(-c2ccc(F)cc2F)oc2cc(N(C)S(C)(=O)=O)c(-c3ncc4c(n3)-c3cc5c(F)cccc5n3CO4)cc12 [Compound 149] | 2.2 | 1.2 |
| COC(=O)c1c(-c2ccc(F)cc2)oc2cc(N(C)S(C)(=O)=O)c(-c3ccc4c(n3)-c3cc5c(F)cccc5n3CO4)cc12 [Compound 150, methyl 5-(11-fluoro-6H-pyrido[2′,3′:5,6][1,3]oxazino[3,4-a]indol-2-yl)-2-(4-fluorophenyl)-6-(N-methylmethylsulfonamido)benzofuran-3-carboxylate] | 30 | 38 |
| CN(c1cc2oc(-c3ccc(F)cc3)c(C(=O)NCCO)c2cc1-c1ccc2c(n1)-c1cc3c(F)cccc3n1CO2)S(C)(=O)=O [Compound 151, 5-(11-fluoro-6H-pyrido[2′,3′:5,6][1,3]oxazino[3,4-a]indol-2-yl)-2-(4-fluorophenyl)-N-(2-hydroxyethyl)-6-(N-methylmethylsulfonamido)benzofuran-3-carboxamide] | 5.9 | 4.3 |
| CN(c1cc2oc(-c3ccc(F)cc3)c(C(=O)NC3COC3)c2cc1-c1ccc2c(n1)-c1cc3c(F)cccc3n1CO2)S(C)(=O)=O [Compound 152] | 15 | 14 |
| CONC(=O)c1c(-c2ccc(F)cc2)oc2cc(N(C)S(C)(=O)=O)c(-c3ccc4c(n3)-c3cc5c(F)cccc5n3CO4)cc12 [Compound 153] | 4.9 | 2.5 |
| CN(c1cc2oc(-c3ccc(F)cc3)c(C(N)=O)c2cc1-c1ccc2c(n1)-c1cc3c(F)cccc3n1CO2)S(C)(=O)=O [Compound 154] | 2.2 | 2.7 |
| CN(O)C(=O)c1c(-c2ccc(F)cc2)oc2cc(N(C)S(C)(=O)=O)c(-c3ccc4c(n3)-c3cc5c(F)cccc5n3CO4)cc12 [Compound 155] | 17 | 7 |
| CCNC(=O)c1c(-c2ccc(F)cc2)oc2cc(N(C)S(C)(=O)=O)c(-c3ccc4c(n3)-c3cc5c(F)cccc5n3CO4)cc12 [Compound 156] | 2.9 | 2.3 |
| CN(c1cc2oc(-c3ccc(F)cc3)c(C(=O)NC3CC3)c2cc1-c1ccc2c(n1)-c1cc3c(F)cccc3n1CO2)S(C)(=O)=O [Compound 157] | 11 | 7.6 |
| CC(C)NC(=O)c1c(-c2ccc(F)cc2)oc2cc(N(C)S(C)(=O)=O)c(-c3ccc4c(n3)-c3cc5c(F)cccc5n3CO4)cc12 [Compound 158] | 24 | 42 |
| CN(c1cc2oc(-c3ccc(F)cc3)c(-c3nnco3)c2cc1-c1ccc2c(n1)-c1cc3c(F)cccc3n1CO2)S(C)(=O)=O [Compound 159, N-(5-(11-fluoro-6H-pyrido[2′,3′:5,6][1,3]oxazino[3,4-a]indol-2-yl)-2-(4-fluorophenyl)-3-(1,3,4-oxadiazol-2-yl)benzofuran-6-yl)-N-methylmethanesulfonamide] | 22 | 11 |
| CN(c1cc2oc(-c3ccc(F)cc3)c(-c3ncn[nH]3)c2cc1-c1ccc2c(n1)-c1cc3c(F)cccc3n1CO2)S(C)(=O)=O [Compound 160, N-(5-(11-fluoro-6H-pyrido[2′,3′:5,6][1,3]oxazino[3,4-a]indol-2-yl)-2-(4-fluorophenyl)-3-(1H-1,2,4-triazol-5-yl)benzofuran-6-yl)-N-methylmethanesulfonamide] | 16 | 19 |
| Cc1n[nH]c(-c2c(-c3ccc(F)cc3)oc3cc(N(C)S(C)(=O)=O)c(-c4ccc5c(n4)-c4cc6c(F)cccc6n4CO5)cc23)n1 [Compound 161, N-(5-(11-fluoro-6H-pyrido[2′,3′:5,6][1,3]oxazino[3,4-a]indol-2-yl)-2-(4-fluorophenyl)-3-(3-methyl-1H-1,2,4-triazol-5-yl)benzofuran-6-yl)-N-methylmethanesulfonamide] | 54 | 32 |
| CNC(=O)c1c(-c2ccc(F)cc2)oc2ccc(-c3ccc4c(n3)-c3cc5c(F)cccc5n3CO4)cc12 [Compound 162, 5-(11-fluoro-6H-pyrido[2′,3′:5,6][1,3]oxazino[3,4-a]indol-2-yl)-2-(4-fluorophenyl)-N-methylbenzofuran-3-carboxamide] | 18 | 29 |
| CNC(=O)c1c(-c2ccc(F)cc2)oc2cc(N)c(-c3ccc4c(n3)-c3cc5c(F)cccc5n3CO4)cc12 [Compound 163, 6-amino-5-(11-fluoro-6H-pyrido[2′,3′:5,6][1,3]oxazino[3,4-a]indol-2-yl)-2-(4-fluorophenyl)-N-methylbenzofuran-3-carboxamide] | 2.2 | 1.1 |
| CNC(=O)c1c(-c2ccc(F)cc2)oc2cc(-n3cn[nH]c3=O)c(-c3ccc4c(n3)-c3cc5c(F)cccc5n3CO4)cc12 [Compound 164] | 1 | 1.7 |
